Target: T1, Human M4 (Homo sapiens, UniProt P08173)
T1 construct: expressed in transfected cells; host or cells: CHO-K1 (ATCC), co-transfected with chimeric G protein Gqi5
T1 sequence (P08173 1-479): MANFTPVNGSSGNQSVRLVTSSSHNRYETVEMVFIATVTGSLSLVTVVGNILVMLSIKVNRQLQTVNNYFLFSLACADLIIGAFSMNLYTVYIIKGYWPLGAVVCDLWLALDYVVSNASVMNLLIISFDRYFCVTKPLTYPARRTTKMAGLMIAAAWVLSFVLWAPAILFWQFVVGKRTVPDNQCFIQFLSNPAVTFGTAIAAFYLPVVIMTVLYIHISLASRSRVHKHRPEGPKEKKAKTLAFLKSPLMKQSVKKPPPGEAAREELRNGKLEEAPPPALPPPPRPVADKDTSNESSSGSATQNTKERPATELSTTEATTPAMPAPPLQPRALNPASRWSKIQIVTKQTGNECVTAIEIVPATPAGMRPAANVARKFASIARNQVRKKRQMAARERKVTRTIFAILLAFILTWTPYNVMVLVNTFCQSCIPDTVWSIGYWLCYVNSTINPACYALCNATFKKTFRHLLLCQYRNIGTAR
Assay: mAChR M4 cell-based functional assay (calcium flux, decrease of EC80 acetylcholine response) in M4/Gqi5/CHO-K1 cells
Details: CHO-K1 cells with human M4 and Gqi5; for remaining activity at 30 µM: % ACh maximum at 30 μM, read-out: Human M4 Emin; for IC50: antagonist mode: concentration-dependent decrease of response to EC80 acetylcholine
Experimental: Human or rat M4 cDNA, along with the chimeric G protein Gqi5, were transfected into Chinese hamster ovary (CHO-K1) cells purchased from the American Type Culture Collection using Lipofectamine2000. M4/Gqi5/CHO cells were grown in Ham's F-12 medium containing 10% heat-inactivated fetal bovine serum (FBS), 20 mM HEPES, 500 μg/mL G418 sulfate, and 200 μg/mL Hygromycin B.
For high throughput measurement of agonist-evoked increases in intracellular calcium, CHO-K1 cells stably expressing muscarinic receptors were plated in growth medium lacking G418 and hygromycin at 15,000 cells/20 μL/well in Greiner 384-well black-walled, tissue culture (TC)-treated, clear-bottom plates (VWR). Cells were incubated overnight at 37° C. and 5% CO2. The next day, cells were washed using an ELX 405 (BioTek) with assay buffer; the final volume was then aspirated to 20 μL. Next, 20 μL of a 2.3 μM stock of Fluo-4/acetoxymethyl ester (Invitrogen, Carlsbad, CA), prepared as a 2.3 mM stock in DMSO and mixed in a 1:1 ratio with 10% (w/v) Pluronic F-127 and diluted in assay buffer, was added to the wells and the cell plates were incubated for 50 min at 37° C. and 5% CO2. Dye was removed by washing with the ELX 405 and the final volume was aspirated to 20 μL. Compound master plates were formatted in a 10 point concentration-response curve (CRC) format (1:3 dilutions) in 100% DMSO with a starting concentration of 10 or 1 mM using a BRAVO liquid handler (Agilent). Test compound CRCs were then transferred to daughter plates (240 nL) using the Echo acoustic plate reformatter (Labcyte, Sunnyvale, CA) and then diluted into assay buffer (40 μL) to a 2× stock using a Thermo Fisher Combi (Thermo Fisher Scientific, Waltham, MA).
Calcium flux was measured using the Functional Drug Screening System (FDSS) 6000 or 7000 (Hamamatsu Corporation, Tokyo, Japan) as an increase in the fluorescent static ratio. Compounds were applied to cells (20 μL, 2×) using the automated system of the FDSS at 2 seconds into the protocol and the data were collected at 1 Hz. At 143 s, 10 μL of an EC20 concentration of the muscarinic receptor agonist acetylcholine was added (5×), followed by the addition of 12 μL of an EC80 concentration of acetylcholine at the 268 s time point (5×). Agonist activity was analyzed as a concentration-dependent increase in calcium mobilization upon compound addition. Positive allosteric modulator activity was analyzed as a concentration-dependent increase in the EC20 acetylcholine response. Antagonist activity was analyzed as a concentration-dependent decrease in the EC80 acetylcholine response; for the purposes of the tables herein, an IC50 (inhibitory concentration 50) was calculated as a concentration-dependent decrease of the response elicited by an EC80 concentration of acetylcholine. Concentration-response curves were generated using a four-parameter logistical equation in XLFit curve fitting software (IDBS, Bridgewater, NJ) for Excel (Microsoft, Redmond, WA) or Prism (GraphPad Software, Inc., San Diego, CA) or the Dotmatics software platform (Dotmatics, Bishop's Stortford, UK).
Compounds were synthesized as described above. Activity (IC50 and Emin) was determined in the mAChR M4 cell-based functional assay as described above and the data are shown in Table 1.

[2H]C([2H])([2H])N(Cc1csc2c1CCN(CC1CCOCC1)C2)c1ccc(-c2cc(F)ccc2Cl)nn1 [A15, 6-(2-chloro-5-fluorophenyl)-N-(methyl-d3)-N-((6-((tetrahydro-2H-pyran-4-yl)methyl)-4,5,6,7-tetrahydrothieno[2,3-c]pyridin-3-yl)methyl)pyridazin-3-amine]
remaining activity at 30 µM: 8% | IC50: 957 nM

O=S1(=O)CCCCN1c1ccc(NCc2csc3c2CCN(CC2CCOCC2)C3)nn1 [A8, 2-(6-(((6-((tetrahydro-2H-pyran-4-yl)methyl)-4,5,6,7-tetrahydrothieno[2,3-c]pyridin-3-yl)methyl)amino)pyridazin-3-yl)-1,2-thiazinane 1,1-dioxide]
remaining activity at 30 µM: 11% | IC50: 1400 nM

Fc1ccc(Cl)c(-c2ccc(NCc3cccc4c3CCN(CC3CCOCC3)C4)nn2)c1 [B1, 6-(2-chloro-5-fluorophenyl)-N-((2-((tetrahydro-2H-pyran-4-yl)methyl)-1,2,3,4-tetrahydroisoquinolin-5-yl)methyl)pyridazin-3-amine]
remaining activity at 30 µM: 6% | IC50: 356 nM

Cn1cc2cc(-c3ccc(NCc4csc5c4CCN(CC4CCOCC4)C5)nn3)ccc2n1 [A3, 6-(2-methyl-2H-indazol-5-yl)-N-((6-((tetrahydro-2H-pyran-4-yl)methyl)-4,5,6,7-tetrahydrothieno[2,3-c]pyridin-3-yl)methyl)pyridazin-3-amine]
remaining activity at 30 µM: 9% | IC50: 529 nM

Cc1ccc(CN2CCc3c(CNc4ccc(-c5cc(F)ccc5Cl)nn4)csc3C2)nc1 [A12, 6-(2-chloro-5-fluorophenyl)-N-((6-((5-methylpyridin-2-yl)methyl)-4,5,6,7-tetrahydrothieno[2,3-c]pyridin-3-yl)methyl)pyridazin-3-amine]
remaining activity at 30 µM: 10% | IC50: 1480 nM

Fc1ccc(Cl)c(-c2ccc(NCc3cccc4c3CCN(Cc3ccccn3)C4)nn2)c1 [B4, 6-(2-chloro-5-fluorophenyl)-N-((2-(pyridin-2-ylmethyl)-1,2,3,4-tetrahydroisoquinolin-5-yl)methyl)pyridazin-3-amine]
remaining activity at 30 µM: 6% | IC50: 288 nM

Fc1cc(F)c(F)c(-c2ccc(NCc3cccc4c3CCN(CC3CCOCC3)C4)nn2)c1 [B7, N-((2-((tetrahydro-2H-pyran-4-yl)methyl)-1,2,3,4-tetrahydroisoquinolin-5-yl)methyl)-6-(2,3,5-trifluorophenyl)pyridazin-3-amine]
remaining activity at 30 µM: 11% | IC50: 616 nM

CN(Cc1csc2c1CCN(CC1CCOCC1)C2)c1ccc(-c2cc(F)ccc2Cl)nn1 [A14, 6-(2-chloro-5-fluorophenyl)-N-methyl-N-((6-((tetrahydro-2H-pyran-4-yl)methyl)-4,5,6,7-tetrahydrothieno[2,3-c]pyridin-3-yl)methyl)pyridazin-3-amine]
remaining activity at 30 µM: 7% | IC50: 1680 nM

OC1(CN2CCc3c(CNc4ccc(-c5cc(F)ccc5Cl)nn4)cccc3C2)CCCCC1 [B6, 1-((5-(((6-(2-chloro-5-fluorophenyl)pyridazin-3-yl)amino)methyl)-3,4-dihydroisoquinolin-2(1H)-yl)methyl)cyclohexan-1-ol]
remaining activity at 30 µM: 6% | IC50: 257 nM

From US12516067B2, “Antagonists of the muscarinic acetylcholine receptor M4” (Vanderbilt University, priority 2020, dated 2026)
